Data: PMC7241010, “In Vivo and In Vitro Study of N-Methyltaurine on Pharmacokinetics and Antimuscle Atrophic Effects in Mice” (ACS Omega, 2020)
Like-named read-outs stand apart in the source and are kept apart here.

How the values were obtained:
ICR mice = assay: Dexamethasone-induced muscle atrophy model in ICR mice; format: in vivo, mouse
Description: Next, to investigate the effect of NMT on skeletal muscle atrophy, a mouse atrophy model induced by Dex was employed[41] (Figure 5). Mice were administered with Dex daily (i.p., 10 mg/kg body weight) and maintained on drinking water either with no addition or containing 0.5% NMT.
To induce muscle atrophy in ICR mice, Dex was suspended in saline (10 mg/mL), and the mixture was intraperitoneally (i.p.) injected at 10 mg/kg body weight once a day for 10 days.[41] Body weight was monitored daily. Then, mice were euthanized by cervical dislocation, and muscles were isolated from the mice. The isolated tissue was immediately froze in liquid nitrogen and stored at −80 °C.

C2C12 myotubes [1] = assay: Dex-induced myotube atrophy in C2C12 cells (myotube diameter); format: cell-based, mouse; settings: 24 h
Description: To explore the beneficial effect of NMT against skeletal muscle atrophy in mice, we investigated its protective effect using cultures of C2C12 myotubes.
C2C12 mouse myoblasts were purchased from ATCC (American Type Culture Collection) and were cultured in DMEM containing 10% fetal bovine serum. Cell lines were not tested for mycoplasma contamination in the present study. To induce differentiation of the myotubes, cells were cultured in DMEM containing 2% fetal bovine serum for 1 week. After differentiation, cells were treated with Dex (final concentration, 50 μM) with or without NMT.[28] Myotube diameter was measured from microscopic images taken after treatment with Dex.

[2] = test system: taurine uptake in brain slices; settings: cited from earlier work
[3] = Tissue distribution of NMT after 0.5% NMT in drinking water; format: in vivo, mouse; settings: mice
Description: To evaluate the tissue distribution of NMT in mice after administration in the drinking water, the concentration of NMT was measured in tissues and serum 4 days after the original administration (Figure 3). The tissue concentration of NMT was analyzed by HPLC. NMT was widely distributed in the tissues of mice, including in brain, liver, kidney, heart, and muscles. The tissue concentration of NMT was much higher than that of serum concentration, with one exception, the skin (Figure 3).
To measure NMT in the serum and tissues after long-term treatment with NMT, NMT dissolved in the drinking water (0.5%) was given to mice for 4 days. After that, mice were anesthetized by medetomidine (0.3 mg/kg body weight; FUJIFILM Wako Pure Chemical), butorphanol (5 mg/kg body weight; FUJIFILM Wako Pure Chemical), and midazolam (4 mg/kg body weight; FUJIFILM Wako Pure Chemical), and then blood and tissues were collected. Tissues were kept in −80 °C until use.
(§1) Plasma samples were mixed with an equal volume of 5% sulfosalicylic acid (SSA) containing the internal standard chemical sarcosine (0.1 mM). Tissues in 10 volumes of 5% SSA containing an internal control were homogenized using a Polytron homogenizer. Samples were centrifuged, and the supernatant was filtered with 0.45 μm filters and then neutralized with NaHCO3.
(§2) NMT was measured by HPLC after derivatization with 9-fluorenylmethyloxycarbonyl chloride (FMOC-Cl) according to a previous report with brief modification.[49] First, equal volumes of o-phthalaldehyde (OPA) reagent (5 mM OPA, 23 mM 3-mercaptopropionic acid, 10 mM boric acid, pH 10.4) was added to acid-extracted samples and incubated at room temperature for 1 min for the derivatization of the primary amine. Then, 1 volume of FMOC-Cl reagent (3 mM FMOC-Cl in acetone) was added to the mixture and incubated for additional 1 min for the derivatization of residual secondary amine. After dilution with HPLC mobile phase buffer A (10 mM potassium phosphate, pH 7.3), samples were subjected to HPLC analysis performed on an UltiMate 3000 rapid separation binary system (Thermo Fisher, USA) or Prominence HPLC system (Shimadzu, Japan). Samples were injected into a ZORBAX Eclipse Plus C18 column (Agilent, USA). Mobile phases A (10 mM potassium phosphate, pH 7.3) and B (acetonitrile) were used. The column oven temperature was set at 40 °C. The flow rate of the mobile phase was 1.5 mL/min. The gradient of the mobile phase was increased from 2 to 88% buffer B (from 0.84 to 11.9 min) and was kept at 100% buffer B for 3 min followed by 2% for 15 min. N-Methyltaurine derivatized by FMOC-Cl was monitored by a fluorescence detector (excitation: 266 nm, emission: 305 nm) and diode array detector (Shimadzu).

Atrogin-1 and MuRF1 = assay: Gene expression of Atrogin-1 and MuRF1 in C2C12 myotubes (qRT-PCR); format: cell-based, mouse; settings: C2C12 myotubes treated with Dex and NMT
Description: We tested whether these ubiquitin ligases are involved in the suppressive effect of NMT against muscle atrophy in the C2C12 myotube.
Total RNA was isolated from C2C12 cells using Sepasol Super G (Nacalai Tesque, Kyoto, Japan), and cDNA was generated by using ReverTra Ace (Toyobo, Osaka, Japan). Quantitative RT-PCR analysis was performed using Applied Biosystems StepOne (Applied Biosystems) with THUNDERBIRD SYBR qPCR Mix (Toyobo). The primers used are as follows: Atrogin-1 forward: 5′-TTCAG CAGCC TGAAC TACGA-3′, reverse: 5′-AGTAT CCATG GCGCT CCTTC-3′. MuRF1 forward: 5′-GCGTG ACCAC AGAGG GTAAA-3′, reverse: 5′-CTCTG CGTCC AGAGC GTG-3′. GAPDH forward: 5′-GCCGG TGCTG AGTAT GTCGT-3′, reverse: 5′-CCCTT TTGGC TCCAC CCTT-3′.

[4] = Pharmacokinetics and oral bioavailability of NMT in mice (plasma NMT by HPLC); format: in vivo, mouse; settings: for AUC(0-t): read-out: AUC0–180min (converted)
Description: To study the pharmacokinetic parameters and the oral bioavailability of NMT, we tested the serum concentration of NMT after p.o. or i.v. injection of NMT (Figure 2). Biological fluid was sampled following the injection of NMT. […] Oral bioavailability is defined as the fraction of the dose that reaches the systemic circulation. Blood samples were collected at 10 to 180 min after NMT administration and then examined by HPLC.
All experimental procedures were approved by the Institutional Animal Care and Use Committee of the Fukui Prefectural University. Three-month-old male ICR mice were used for this study. […] Blood samples were collected from the facial vein (for i.v. injection) or the tail vein (for p.o. injection) at 10, 20, 30, 60, 120, and 180 min after NMT administration.
as §1, §2
Pharmacokinetic parameters were calculated by using R (Package “PK”, ver. 1.3-4).

C2C12 myotubes [5] = settings: in vitro exposure to dexamethasone; cited from earlier work
[6] = rats; cited from earlier work
taurine transport system = settings: human intestine cells, cited from earlier work
[7] = drinking water containing 0.5% NMT for 4 days, average
[8] = Dex i.p. 10 mg/kg daily for 10 days, 0.5% NMT in drinking water

## C[C@@H]1C[C@H]2[C@@H]3CCC4=CC(=O)C=C[C@]4(C)[C@@]3(F)[C@@H](O)C[C@]2(C)[C@@]1(O)C(=O)CO [Dex, dexamethasone, reference compound]
ICR mice; Dex i.p. 10 mg/kg body weight daily
  effect on body weight: caused a continuous loss of body weight
C2C12 myotubes [1]; Dex 50 μM
  effect on myotube width: reduced the width of the myotube

## CNCCS(=O)(=O)O [NMT, N-Methyltaurine]
[2]
  effect on taurine uptake: inhibits taurine uptake
[3]; ICR, mouse, 0.5 % in drinking water, oral NMT, various tissues, skin is an exception, read-out: tissue NMT relative to serum concentration of NMT
  Kp at 4 days: 10 to 100
[3]; [7]
  Tissue NMT, brain: 0.84 nmol/g wet
  Tissue NMT, heart: 3.5 nmol/g wet
  Tissue NMT, kidney: 0.39 nmol/g wet
  Tissue NMT, liver: 0.50 nmol/g wet
  Tissue NMT, muscle: 0.17 nmol/g wet
  Tissue NMT, serum: 0.033 nmol/g wet
  Tissue NMT, skin: 0.019 nmol/g wet
ICR mice; [8]
  effect on Dex-induced loss in wet weight of gastrocnemius muscle: attenuated Dex-induced loss in wet weight
  effect on Dex-induced loss in wet weight of tibial anterior muscle: attenuated Dex-induced loss in wet weight
ICR mice; Dex i.p. 10 mg/kg daily, 0.5% NMT in drinking water
  effect on Dex-induced body weight loss: attenuated body weight loss
C2C12 myotubes [1]; Dex 50 μM + NMT 20 mM
  effect on Dex-induced decline in myotube width: prevented the decline in myotube width
Atrogin-1 and MuRF1
  effect on Dex-induced Atrogin-1 and MuRF1 gene expression: did not act by downregulating those genes
[4]; male, ICR, mouse, iv, i.v. 0.5 mg/kg BW, plasma
  AUC(0-t): 900 ng·h/mL
[4]; male, ICR, mouse, plasma, oral, 0.5 mg/kg, p.o. 0.5 mg/kg BW vs i.v. 0.5 mg/kg BW, read-out: bioavailability
  bioavailability: 96%
[4]; male, ICR, mouse, plasma, oral, 5 mg/kg BW, p.o. 5 mg/kg BW vs i.v. 0.5 mg/kg BW, read-out: bioavailability
  bioavailability: 58%
[4]; male, ICR, mouse, po, p.o. 0.5 mg/kg BW, plasma
  AUC(0-t): 865 ng·h/mL
[4]; male, ICR, mouse, po, p.o. 5 mg/kg BW, plasma
  AUC(0-t): 5250 ng·h/mL
[4]; p.o. 0.5 mg/kg BW vs i.v. 0.5 mg/kg BW, 0.5 mg/kg
  bioavailability: 96.1%

## NCCS(=O)(=O)O [taurine]
C2C12 myotubes [5]
  effect on Dex-induced muscle atrophy in vitro: attenuates muscle atrophy
[6]
  oral bioavailability: ~100%
Taurine transport system
  concentration at which transport activity is almost saturated: ~50 µM
Taurine transport system; read-out: Km of taurine transport
  Km: 4.8 µM
